As a reminder, the Kd is a measure of binding affinity in units of concentration. Read a high Kd as weaker binding. The Ki is a dissociation constant, usually derived from enzyme kinetics or from competition with a known ligand. High values mean a looser hold on the target, low ones a stronger hold on the target.

One experiment addresses tubulin (αβ-heterodimer). Briefly: [3H] radioligand binding. Also noted: species or system Bos taurus.
Conditions: not given
spongistatin 1 showed a Kd of 1100 ± 300 nM.

For a further experiment, the target named is tubulin (αβ-heterodimer). Briefly: competition with [3H]spongistatin […], centrifugal gel filtration. The format is binding, Bos taurus.
Conditions: not given
Consider `C=C(Cl)/C=C/C(O)CC(=C)CC1OC2C(C)C(OC(=O)CC3CC(O)CC4(CC(C)(O)CC(/C=C5/COC(C(C)C(=O)CC6CC(OC)CC7(CC(O)CC(/C=C\CCCC8OC(O)(CC(O)C8C)C2O)O7)O6)C5C)O4)O3)C1O` (stereo not shown) [spongistatin 5], for which the Ki was determined as 2200 nM.

The next experiment relates to HeLa. Briefly: cells. The settings on record: Homo sapiens, 96 h, read-out: HeLa / IC50 (nM) ± S.D.). Further details: species or system OVCAR-8, NCI/ADR-RES.
As for `CC(C)[C@H](O)C(=O)N[C@H]1Cc2ccc3c(c2)[C@]24C5=C(N=C(O5)[C@H](C(C)C)NC1=O)c1nc(Cl)c(o1)-c1c(Cl)[nH]c5cccc(c15)-c1cccc2c1N[C@@H]4O3` [Diazonamide A], the IC50 worked out at 15 ± 5 nM.

On to `COc1cc2cc(c1Cl)N(C)C(=O)C[C@H](OC(=O)[C@H](C)N(C)C(C)=O)[C@]1(C)O[C@H]1[C@H](C)[C@@H]1C[C@@](O)(NC(=O)O1)[C@H](OC)/C=C/C=C(\C)C2` [Maytansine], for which the IC50 was found to be 2 nM.

Regarding `CO[C@@H](/C(C)=C/C=C/C(C)=C/c1coc(C)n1)[C@@H](C)[C@@H]1C[C@H](O)[C@@]2(C)O[C@@H]2/C=C/[C@@H](C)[C@H]2C[C@H](CC(=O)O2)C[C@@H]2O[C@H]2C(=O)O1` [Rhizoxin], the IC50 was 3 ± 1 nM.

With `COc1ccc(C[C@H]2NC(=O)/C=C/C[C@@H]([C@H](C)[C@H]3O[C@@H]3c3ccccc3)OC(=O)[C@H](CC(C)C)OC(=O)[C@H](C)CNC2=O)cc1Cl` [cryptophycin 1], the IC50 was found to be 0.01 ± 0.004 nM.

Consider `CC[C@H](C)[C@@H]([C@@H](CC(=O)N1CCC[C@H]1[C@H](OC)[C@@H](C)C(=O)N[C@@H](Cc1ccccc1)c1nccs1)OC)N(C)C(=O)[C@@H](NC(=O)[C@H](C(C)C)N(C)C)C(C)C` [dolastatin 10], for which the IC50 was 0.04 ± 0.01 nM.

For `C=C1C[C@@H]2CC[C@@]34C[C@H]5O[C@H]6[C@@H](O3)[C@H]3O[C@H](CC[C@@H]3O[C@H]6[C@H]5O4)CC(=O)C[C@@H]3[C@@H](OC)[C@@H](C[C@H](O)CN)O[C@H]3C[C@H]3O[C@@H](CC[C@@H]1O2)C[C@@H](C)C3=C` [eribulin], the IC50 amounted to 20 nM.

With `CN[C@H](C(=O)N[C@H](C(=O)N(C)[C@H](/C=C(\C)C(=O)O)C(C)C)C(C)(C)C)C(C)(C)c1cn(C)c2ccccc12` [hemiasterlin], the IC50 turned out to be 0.25 ± 0.05 nM.

Consider `CC[C@]1(O)C[C@@H]2CN(CCc3c([nH]c4ccccc34)[C@@](C(=O)OC)(c3cc4c(cc3OC)N(C)[C@H]3[C@@](O)(C(=O)OC)[C@H](OC(C)=O)[C@]5(CC)C=CCN6CC[C@]43[C@@H]65)C2)C1` [vinblastine], for which the IC50 came out at 6 ± 3 nM.

The values above are taken from PMC10062379 (Archives of biochemistry and biophysics, 2022).
